Assay results taken from patent US20090105270A1, “Kinase inhibition and anticancer therapy” (priority 2007, published 2009).

Tests used:
BrSK2(h) = molecular target: T1, BrSK2(h) (Homo sapiens, UniProt Q8IWQ3); assay: Upstate kinase activity inhibition assay BrSK2(h); format: biochemical; conditions: 40 min; read-out: percentage of enzyme activity that remains
T1 construct: purchased Upstate (KinaseProfiler service)

CDK2/cyclinA(h) = molecular target: T2, CDK2/cyclinA(h) (Homo sapiens, UniProt P24941); assay: Upstate kinase activity inhibition assay CDK2/cyclinA(h); format: biochemical; conditions: 0.2 μM Compound E
T2 construct: purchased Upstate (KinaseProfiler service)

CDK7/cyclinH/MAT1(h) = molecular target: T3, CDK7/cyclinH/MAT1(h) (Homo sapiens, UniProt P50613); assay: Upstate kinase activity inhibition assay CDK7/cyclinH/MAT1(h); format: biochemical; conditions: 40 min, read-out: percentage of enzyme activity that remains
T3 construct: purchased Upstate (KinaseProfiler service)

EphB4(h) = molecular target: T4, EphB4(h) (Homo sapiens, UniProt P54760); assay: Upstate kinase activity inhibition assay EphB4(h); format: biochemical; conditions: 40 min; read-out: percentage of enzyme activity that remains
T4 construct: purchased Upstate (KinaseProfiler service)

p70S6K(h) = molecular target: T5, p70S6K(h) (Homo sapiens, UniProt P23443); assay: Upstate kinase activity inhibition assay p70S6K(h); format: biochemical; conditions: 40 min; read-out: percentage of enzyme activity that remains
T5 construct: purchased Upstate (KinaseProfiler service)

PDGFRβ(h) = molecular target: T6, PDGFRβ(h) (Homo sapiens, UniProt P09619); assay: Upstate kinase activity inhibition assay PDGFRβ(h); format: biochemical; conditions: 40 min; read-out: percentage of enzyme activity that remains
T6 construct: purchased Upstate (KinaseProfiler service)

Pim-1(h) = Pim-1(h) (Homo sapiens, UniProt P11309); assay: Upstate kinase activity inhibition assay Pim-1(h); format: biochemical; conditions: 40 min; read-out: percentage of enzyme activity that remains
Pim-2(h) = molecular target: T7, Pim-2(h) (Homo sapiens, UniProt Q9P1W9); assay: Upstate kinase activity inhibition assay Pim-2(h); format: biochemical; conditions: 40 min; read-out: percentage of enzyme activity that remains
T7 construct: purchased Upstate (KinaseProfiler service)

PKA(h) = PKA(h) (Homo sapiens, UniProt P17612); assay: Upstate kinase activity inhibition assay PKA(h); format: biochemical; conditions: 40 min; read-out: percentage of enzyme activity that remains
PKBγ(h) = molecular target: T8, PKBγ(h) (Homo sapiens, UniProt Q9Y243); assay: Upstate kinase activity inhibition assay PKBγ(h); format: biochemical; conditions: 40 min; read-out: percentage of enzyme activity that remains
T8 construct: purchased Upstate (KinaseProfiler service)

PKCβII(h) = molecular target: T9, PKCβII(h) (Homo sapiens, UniProt P05771); assay: Upstate kinase activity inhibition assay PKCβII(h); format: biochemical; conditions: 40 min; read-out: percentage of enzyme activity that remains
T9 construct: purchased Upstate (KinaseProfiler service)

PKG1α(h) = molecular target: T10, PKG1α(h) (Homo sapiens, UniProt Q13976); assay: Upstate kinase activity inhibition assay PKG1α(h); format: biochemical; conditions: 40 min; read-out: percentage of enzyme activity that remains
T10 construct: purchased Upstate (KinaseProfiler service)

Pyk2(h) = molecular target: T11, Pyk2(h) (Homo sapiens, UniProt Q14289); assay: Upstate kinase activity inhibition assay Pyk2(h); format: biochemical; conditions: 40 min; read-out: percentage of enzyme activity that remains
T11 construct: purchased Upstate (KinaseProfiler service)

Ron(h) = molecular target: T12, Ron(h) (Homo sapiens, UniProt Q04912); assay: Upstate kinase activity inhibition assay Ron(h); format: biochemical; conditions: 40 min; read-out: percentage of enzyme activity that remains
T12 construct: purchased Upstate (KinaseProfiler service)

KDR(h) = KDR(h) (Homo sapiens, UniProt P35968); assay: Upstate kinase activity inhibition assay KDR(h); conditions: 40 min, read-out: percentage of enzyme activity that remains
DMPK(h) = DMPK(h) (Homo sapiens, UniProt Q09013); assay: Upstate kinase activity inhibition assay DMPK(h); conditions: 40 min, read-out: percentage of enzyme activity that remains
Sequence of DMPK(h) (Q09013 whole entry): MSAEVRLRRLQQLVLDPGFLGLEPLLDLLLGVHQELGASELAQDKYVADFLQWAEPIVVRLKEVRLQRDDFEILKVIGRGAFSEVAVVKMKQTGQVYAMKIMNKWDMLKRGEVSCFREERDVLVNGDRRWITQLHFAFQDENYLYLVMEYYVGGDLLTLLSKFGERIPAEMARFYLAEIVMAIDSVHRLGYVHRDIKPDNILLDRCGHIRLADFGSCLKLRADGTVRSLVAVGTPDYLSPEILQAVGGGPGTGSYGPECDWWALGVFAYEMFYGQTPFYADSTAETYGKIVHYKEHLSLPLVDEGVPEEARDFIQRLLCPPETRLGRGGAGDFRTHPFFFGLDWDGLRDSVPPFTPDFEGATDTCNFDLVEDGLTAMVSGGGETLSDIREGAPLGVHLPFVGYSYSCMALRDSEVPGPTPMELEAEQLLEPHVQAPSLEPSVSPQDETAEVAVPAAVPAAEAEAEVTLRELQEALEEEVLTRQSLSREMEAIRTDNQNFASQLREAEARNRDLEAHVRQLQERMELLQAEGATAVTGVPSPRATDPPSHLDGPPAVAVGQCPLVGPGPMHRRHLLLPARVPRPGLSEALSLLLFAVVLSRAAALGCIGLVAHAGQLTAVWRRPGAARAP

MEK1(h) = MEK1(h) (Homo sapiens, UniProt Q02750); assay: Upstate kinase activity inhibition assay MEK1(h); conditions: 40 min, read-out: percentage of enzyme activity that remains
MST2(h) = MST2(h) (Homo sapiens, UniProt Q13188); assay: Upstate kinase activity inhibition assay MST2(h); conditions: 40 min, read-out: percentage of enzyme activity that remains
Sequence of MST2(h) (Q13188 whole entry): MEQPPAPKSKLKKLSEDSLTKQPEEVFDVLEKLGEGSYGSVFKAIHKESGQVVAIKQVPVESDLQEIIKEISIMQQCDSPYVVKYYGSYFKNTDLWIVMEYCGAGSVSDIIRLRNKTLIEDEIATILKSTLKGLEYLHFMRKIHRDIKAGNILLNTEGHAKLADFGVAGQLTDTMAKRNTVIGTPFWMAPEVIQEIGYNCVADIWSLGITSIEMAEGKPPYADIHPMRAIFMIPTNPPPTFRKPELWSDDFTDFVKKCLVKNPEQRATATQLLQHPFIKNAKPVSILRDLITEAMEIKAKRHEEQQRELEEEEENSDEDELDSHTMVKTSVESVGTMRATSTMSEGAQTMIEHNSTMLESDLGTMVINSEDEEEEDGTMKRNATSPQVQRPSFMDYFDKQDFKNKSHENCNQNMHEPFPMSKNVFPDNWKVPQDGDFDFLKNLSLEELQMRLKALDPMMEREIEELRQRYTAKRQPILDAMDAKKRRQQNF

MuSK(h) = MuSK(h) (Homo sapiens, UniProt O15146); assay: Upstate kinase activity inhibition assay MuSK(h); conditions: 40 min, read-out: percentage of enzyme activity that remains
NEK2(h) = NEK2(h) (Homo sapiens, UniProt P51955); assay: Upstate kinase activity inhibition assay NEK2(h); conditions: 40 min, read-out: percentage of enzyme activity that remains
Sequence of NEK2(h) (P51955 whole entry): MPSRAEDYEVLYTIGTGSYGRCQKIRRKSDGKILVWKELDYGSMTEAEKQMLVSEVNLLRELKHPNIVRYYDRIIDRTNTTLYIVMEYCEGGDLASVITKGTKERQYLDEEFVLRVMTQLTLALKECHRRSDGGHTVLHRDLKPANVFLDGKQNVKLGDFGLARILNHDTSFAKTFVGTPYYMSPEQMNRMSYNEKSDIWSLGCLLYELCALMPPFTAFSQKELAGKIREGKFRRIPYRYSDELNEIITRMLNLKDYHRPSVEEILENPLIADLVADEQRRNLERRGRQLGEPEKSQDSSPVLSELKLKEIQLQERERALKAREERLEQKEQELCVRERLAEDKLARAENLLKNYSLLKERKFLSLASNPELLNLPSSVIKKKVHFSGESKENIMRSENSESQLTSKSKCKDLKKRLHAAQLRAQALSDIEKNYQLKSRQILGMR

NEK3(h) = NEK3(h) (Homo sapiens, UniProt P51956); assay: Upstate kinase activity inhibition assay NEK3(h); conditions: 40 min, read-out: percentage of enzyme activity that remains
Sequence of NEK3(h) (P51956 whole entry): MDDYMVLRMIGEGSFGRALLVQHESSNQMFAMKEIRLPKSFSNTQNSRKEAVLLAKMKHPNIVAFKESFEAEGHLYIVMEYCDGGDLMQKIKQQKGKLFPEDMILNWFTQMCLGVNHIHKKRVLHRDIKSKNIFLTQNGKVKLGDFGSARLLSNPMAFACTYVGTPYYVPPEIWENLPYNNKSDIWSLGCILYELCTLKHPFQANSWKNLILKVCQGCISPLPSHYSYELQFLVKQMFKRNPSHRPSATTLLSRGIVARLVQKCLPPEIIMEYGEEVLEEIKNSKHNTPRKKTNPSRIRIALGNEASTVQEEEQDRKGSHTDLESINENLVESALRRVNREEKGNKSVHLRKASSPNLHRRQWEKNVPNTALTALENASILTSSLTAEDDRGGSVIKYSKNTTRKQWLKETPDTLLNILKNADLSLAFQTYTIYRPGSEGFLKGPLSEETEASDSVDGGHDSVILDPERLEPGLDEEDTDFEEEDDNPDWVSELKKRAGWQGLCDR

PKBβ(h) = PKBβ(h) (Homo sapiens, UniProt P31751); assay: Upstate kinase activity inhibition assay PKBβ(h); conditions: 40 min, read-out: percentage of enzyme activity that remains
Rsk3(h) = Rsk3(h) (Homo sapiens, UniProt Q15349); assay: Upstate kinase activity inhibition assay Rsk3(h); conditions: 40 min, read-out: percentage of enzyme activity that remains
Sequence of Rsk3(h) (Q15349 whole entry): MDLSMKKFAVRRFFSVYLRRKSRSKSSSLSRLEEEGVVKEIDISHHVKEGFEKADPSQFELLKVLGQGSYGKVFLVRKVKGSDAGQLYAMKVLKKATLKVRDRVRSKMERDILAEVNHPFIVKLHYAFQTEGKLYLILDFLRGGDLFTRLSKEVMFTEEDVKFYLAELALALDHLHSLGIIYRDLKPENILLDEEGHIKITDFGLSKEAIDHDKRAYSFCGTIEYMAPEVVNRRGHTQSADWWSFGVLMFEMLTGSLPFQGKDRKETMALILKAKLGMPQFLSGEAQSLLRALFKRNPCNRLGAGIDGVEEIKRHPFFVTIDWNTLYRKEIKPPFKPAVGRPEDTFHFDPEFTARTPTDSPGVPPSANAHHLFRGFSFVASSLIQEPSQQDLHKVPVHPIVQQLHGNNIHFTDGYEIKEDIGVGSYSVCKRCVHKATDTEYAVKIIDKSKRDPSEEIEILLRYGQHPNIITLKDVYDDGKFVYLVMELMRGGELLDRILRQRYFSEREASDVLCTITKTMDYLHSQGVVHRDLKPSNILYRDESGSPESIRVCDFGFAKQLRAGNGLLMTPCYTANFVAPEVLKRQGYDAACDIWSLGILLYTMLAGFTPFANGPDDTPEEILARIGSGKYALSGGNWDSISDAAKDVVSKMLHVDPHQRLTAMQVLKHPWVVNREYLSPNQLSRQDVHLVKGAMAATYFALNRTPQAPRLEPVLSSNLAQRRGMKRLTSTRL

TAK1(h) = TAK1(h) (Homo sapiens, UniProt O43318); assay: Upstate kinase activity inhibition assay TAK1(h); conditions: 40 min, read-out: percentage of enzyme activity that remains
MAPK1(h) = MAPK1(h) (Homo sapiens, UniProt P27361); assay: Upstate kinase activity inhibition assay MAPK1(h); conditions: 40 min, read-out: percentage of enzyme activity that remains
Sequence of MAPK1(h) (P27361 whole entry): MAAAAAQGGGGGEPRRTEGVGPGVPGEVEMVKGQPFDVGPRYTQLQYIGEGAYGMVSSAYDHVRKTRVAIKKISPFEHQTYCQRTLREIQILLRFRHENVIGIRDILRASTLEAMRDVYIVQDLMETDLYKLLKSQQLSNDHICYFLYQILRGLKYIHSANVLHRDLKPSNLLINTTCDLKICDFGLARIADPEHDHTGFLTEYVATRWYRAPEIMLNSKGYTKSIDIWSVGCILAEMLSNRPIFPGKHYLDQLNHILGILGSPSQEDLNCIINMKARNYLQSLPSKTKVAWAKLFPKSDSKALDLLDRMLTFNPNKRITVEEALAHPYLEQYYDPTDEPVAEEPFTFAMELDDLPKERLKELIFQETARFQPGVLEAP

NEK11(h) = NEK11(h) (Homo sapiens, UniProt Q8NG66); assay: Upstate kinase activity inhibition assay NEK11(h); conditions: 40 min, read-out: percentage of enzyme activity that remains
Sequence of NEK11(h) (Q8NG66 whole entry): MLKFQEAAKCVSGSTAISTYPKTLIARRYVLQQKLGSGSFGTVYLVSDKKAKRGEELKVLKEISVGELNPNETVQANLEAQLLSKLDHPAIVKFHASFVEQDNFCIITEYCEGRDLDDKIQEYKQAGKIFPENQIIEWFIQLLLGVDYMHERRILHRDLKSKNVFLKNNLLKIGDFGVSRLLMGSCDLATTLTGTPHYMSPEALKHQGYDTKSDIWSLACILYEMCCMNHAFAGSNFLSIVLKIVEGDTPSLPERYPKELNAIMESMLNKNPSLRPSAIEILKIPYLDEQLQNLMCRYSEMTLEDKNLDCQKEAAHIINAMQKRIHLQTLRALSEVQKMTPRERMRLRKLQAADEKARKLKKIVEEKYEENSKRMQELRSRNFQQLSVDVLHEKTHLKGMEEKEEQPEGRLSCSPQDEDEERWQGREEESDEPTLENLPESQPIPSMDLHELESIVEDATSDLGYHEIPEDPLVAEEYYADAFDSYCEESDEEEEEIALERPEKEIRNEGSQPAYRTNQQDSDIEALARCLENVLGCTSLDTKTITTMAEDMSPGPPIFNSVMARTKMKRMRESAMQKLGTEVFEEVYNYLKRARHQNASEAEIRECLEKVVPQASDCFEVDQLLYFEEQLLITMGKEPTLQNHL

CaMKIV(h) = CaMKIV(h) (Homo sapiens, UniProt Q16566); assay: Upstate kinase activity inhibition assay CaMKIV(h); conditions: 40 min, read-out: percentage of enzyme activity that remains
SAPK4(h) = SAPK4(h) (Homo sapiens, UniProt O15264); assay: Upstate kinase activity inhibition assay SAPK4(h); conditions: 40 min, read-out: percentage of enzyme activity that remains
Sequence of SAPK4(h) (O15264 whole entry): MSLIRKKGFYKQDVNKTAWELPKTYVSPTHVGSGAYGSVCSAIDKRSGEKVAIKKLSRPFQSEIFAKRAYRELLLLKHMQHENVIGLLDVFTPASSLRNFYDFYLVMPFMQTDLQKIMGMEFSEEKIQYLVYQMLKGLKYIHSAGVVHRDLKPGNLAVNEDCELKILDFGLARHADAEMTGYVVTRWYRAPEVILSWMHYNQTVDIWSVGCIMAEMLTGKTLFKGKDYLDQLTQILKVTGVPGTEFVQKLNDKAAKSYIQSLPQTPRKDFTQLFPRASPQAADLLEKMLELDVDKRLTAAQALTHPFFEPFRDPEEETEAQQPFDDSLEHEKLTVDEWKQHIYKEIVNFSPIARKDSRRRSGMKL

STK33(h) = STK33(h) (Homo sapiens, UniProt Q9BYT3); assay: Upstate kinase activity inhibition assay STK33(h); conditions: 40 min, read-out: percentage of enzyme activity that remains
ROCK-II(h) = ROCK-II(h) (Homo sapiens, UniProt O75116); assay: Upstate kinase activity inhibition assay ROCK-II(h); conditions: 40 min, read-out: percentage of enzyme activity that remains

T1 sequence (Q8IWQ3 whole entry): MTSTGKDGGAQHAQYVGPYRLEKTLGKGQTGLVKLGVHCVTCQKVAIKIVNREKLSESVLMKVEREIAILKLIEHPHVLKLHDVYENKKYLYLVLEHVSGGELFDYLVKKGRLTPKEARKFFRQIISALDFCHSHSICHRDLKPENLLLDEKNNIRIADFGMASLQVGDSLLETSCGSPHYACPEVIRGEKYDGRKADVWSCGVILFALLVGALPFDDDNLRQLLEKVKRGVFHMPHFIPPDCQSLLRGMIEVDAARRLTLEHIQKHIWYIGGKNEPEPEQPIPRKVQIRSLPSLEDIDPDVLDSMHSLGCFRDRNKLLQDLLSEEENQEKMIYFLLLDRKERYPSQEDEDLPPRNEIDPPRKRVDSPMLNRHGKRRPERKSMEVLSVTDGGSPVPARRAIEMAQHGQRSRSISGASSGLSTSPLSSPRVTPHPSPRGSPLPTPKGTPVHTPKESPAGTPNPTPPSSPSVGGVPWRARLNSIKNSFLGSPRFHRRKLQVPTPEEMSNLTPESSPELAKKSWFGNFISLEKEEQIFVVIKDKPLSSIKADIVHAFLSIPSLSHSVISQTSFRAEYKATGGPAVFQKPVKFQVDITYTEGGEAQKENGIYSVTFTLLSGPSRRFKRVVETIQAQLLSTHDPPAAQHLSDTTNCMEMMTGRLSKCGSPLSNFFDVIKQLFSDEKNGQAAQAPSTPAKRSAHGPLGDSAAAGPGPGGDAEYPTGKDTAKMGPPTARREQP

Cc1cc(Nc2cc(N3CCN(C)CC3)nc(Sc3ccc(NC(=O)C4CC4)cc3)n2)n[nH]1 [Compound E, Cyclopropane carboxylic acid {4-[4-(4-methyl-piperazin-1-yl)-6-(5-methyl-2H-pyrazol-3-ylamino)-pyrimidin-2-ylsulphanyl]-phenyl}-amide]
remaining activity at 0.2 µM (BrSK2(h)): 102%
remaining activity at 4 µM (BrSK2(h)): 96%
percentage of enzyme activity that remains (CDK2/cyclinA(h)): 99%
remaining activity at 0.2 µM (CDK7/cyclinH/MAT1(h)): 113%
remaining activity at 4 µM (CDK7/cyclinH/MAT1(h)): 94%
remaining activity at 0.2 µM (EphB4(h)): 91%
remaining activity at 4 µM (EphB4(h)): 11%
remaining activity at 4 µM (p70S6K(h)): 92%
remaining activity at 0.2 µM (PDGFRβ(h)): 102%
remaining activity at 4 µM (PDGFRβ(h)): 90%
remaining activity at 0.2 µM (Pim-1(h)): 102%
remaining activity at 4 µM (Pim-1(h)): 103%
remaining activity at 0.2 µM (Pim-2(h)): 110%
remaining activity at 4 µM (Pim-2(h)): 124%
remaining activity at 0.2 µM (PKA(h)): 100%
remaining activity at 4 µM (PKA(h)): 102%
remaining activity at 0.2 µM (PKBγ(h)): 89%
remaining activity at 4 µM (PKBγ(h)): 83%
remaining activity at 0.2 µM (PKCβII(h)): 99%
remaining activity at 4 µM (PKCβII(h)): 94%
remaining activity at 4 µM (PKG1α(h)): 89%
remaining activity at 0.2 µM (Pyk2(h)): 100%
remaining activity at 4 µM (Pyk2(h)): 59%
remaining activity at 0.2 µM (Ron(h)): 95%
remaining activity at 4 µM (Ron(h)): 48%
remaining activity at 0.2 µM (KDR(h)): 87%
remaining activity at 4 µM (KDR(h)): 20%
remaining activity at 0.2 µM (DMPK(h)): 95%
remaining activity at 4 µM (DMPK(h)): 103%
remaining activity at 0.2 µM (MEK1(h)): 115%
remaining activity at 4 µM (MEK1(h)): 82%
remaining activity at 0.2 µM (MST2(h)): 92%
remaining activity at 4 µM (MST2(h)): 74%
remaining activity at 0.2 µM (MuSK(h)): 89%
remaining activity at 4 µM (MuSK(h)): 8%
remaining activity at 0.2 µM (NEK2(h)): 112%
remaining activity at 4 µM (NEK2(h)): 109%
remaining activity at 0.2 µM (NEK3(h)): 102%
remaining activity at 4 µM (NEK3(h)): 125%
remaining activity at 0.2 µM (PKBβ(h)): 105%
remaining activity at 4 µM (PKBβ(h)): 85%
remaining activity at 0.2 µM (Rsk3(h)): 96%
remaining activity at 4 µM (Rsk3(h)): 60%
remaining activity at 0.2 µM (TAK1(h)): 99%
remaining activity at 4 µM (TAK1(h)): 66%
remaining activity at 0.2 µM (MAPK1(h)): 94%
remaining activity at 4 µM (MAPK1(h)): 93%
remaining activity at 0.2 µM (NEK11(h)): 106%
remaining activity at 4 µM (NEK11(h)): 106%
remaining activity at 0.2 µM (CaMKIV(h)): 100%
remaining activity at 4 µM (CaMKIV(h)): 99%
remaining activity at 0.2 µM (SAPK4(h)): 96%
remaining activity at 4 µM (SAPK4(h)): 92%
remaining activity at 0.2 µM (STK33(h)): 112%
remaining activity at 4 µM (STK33(h)): 110%
remaining activity at 0.2 µM (ROCK-II(h)): 93%
remaining activity at 4 µM (ROCK-II(h)): 106%
